In patent EP4768499A1, “MACROCYCLIC PEPTIDE COMPOUND HAVING CELL MEMBRANE PERMEABILITY AND METABOLIC STABILITY, AND LIBRARY CONTAINING SAME” (Chugai Seiyaku Kabushiki Kaisha, priority 2023, dated 2025):
Like-named read-outs stand apart in the source and are kept apart here. Starred links: 1 amine or outer side, 2 acyl side, 3 side chain; linkers in the order of their positions; H or OH if unused. Positions of bridges follow the written chain, without caps; N, C: chain ends. Non-standard residues stand in square brackets, D forms with d. Residues, ends and D or L forms follow the SMILES beside them. *: point of attachment. NMedβ3hAla = C[C@H](CC(=O)[*:2])N(C)[*:1]; NMeF = CN[C@@H](Cc1ccccc1)C(=O)O; NMeGABA = CN(CCCC(=O)[*:2])[*:1]; NMeI = CC[C@H](C)[C@H](NC)C(=O)O; hPhe = N[C@@H](CCc1ccccc1)C(=O)O; NMeβAla = CN(CCC(=O)[*:2])[*:1]; NMeD = CN[C@@H](CC(=O)O)C(=O)O; NMeL = CN[C@@H](CC(C)C)C(=O)O; NMeV = CN[C@H](C(=O)O)C(C)C; d(β3hA) = C[C@@H](N)CC(=O)O; NMeAbu = CC[C@H](NC)C(=O)O; NMeA = CN[C@@H](C)C(=O)O; Piperidide = C1CCN(*)CC1; Abu = CC[C@H](N)C(=O)O; Sar = CNCC(=O)O; tBu = CC(C)(C)*

Key:
Caco-2 cells = test: Membrane permeability test using Caco-2 cells with preincubation; format: in vitro ADME
[1] = as above; format: in vitro ADME; conditions: Caco-2
[2] = Metabolic stability test: liver microsomal stability assay; format: in vitro ADME, mouse; conditions: for microsomal CLint at 1 µM: male, pH 7.4, presence of NADPH, read-out: Mouse Hepatic Microsome CLh,int NADPH(+)
[3] = Caco-2 cells, preincubation 20 to 24 hours, apical FaSSIF/HBSS 1% DMSO pH 6.0, basal HBSS 4% BSA pH 7.4, basal sample at 180 minutes
[4] = preincubation 20 to 24 hours, Apical FaSSIF/HBSS pH 6.0, Basal HBSS 4% BSA pH 7.4, 180 minutes, read-out: Caco2 Papp
[5] = mouse liver microsomes 0.5 mg protein/mL, compound 1 µM
[6] = mouse liver microsomes 0.5 mg protein/mL, compound 1 µM, absence of NADPH

Row | Structure (SMILES) | Caco2 Papp (10^-6 cm/sec) (Caco-2 cells; [3]) | Papp A→B [1, 4] [nm/s] | microsomal CLint at 1 µM [2, 5] [µL/min/mg] | Mouse Hepatic Microsome CLh,int NADPH(-) [2, 6] [µL/min/mg Protein] | Caco2 Papp (10^-6 cm/sec) (Caco-2 cells; Caco-2) | Papp A→B [1] [nm/s] | Mouse Hepatic Microsome CLh,int NADPH(-) [2] [µL/min/mg Protein]
1 | CC[C@@H]1NC(=O)[C@H](CC(C)C)N(C)C(=O)[C@H]([C@@H](C)CC)NC(=O)CN(C)C(=O)C[C@@H](C)NC(=O)[C@H](C(C)C)N(C)C(=O)[C@H](COC(C)(C)C)NC(=O)[C@H](CC(C)C)N(C)C(=O)[C@H](Cc2ccccc2)N(C)C(=O)[C@H](C)NC(=O)[C@H](C(C)C)NC(=O)CN(C)C(=O)[C@H]([C@@H](C)O)NC(=O)[C@H](CC(C)C)N(C)C1=O [pd011] (cyclo(A[NMeF][NMeL]S(tBu)[NMeV][d(β3hA)][Sar]I[NMeL][Abu][NMeL]T[Sar]V)) | 0.11 10^-6 cm/sec | 1.1 | 27.3 | 22.9 | – | – | –
2 | CC[C@@H]1NC(=O)[C@H](C(C)C)N(C)C(=O)[C@H](C)N(C)C(=O)[C@H](Cc2ccccc2)N(C)C(=O)[C@H](CC(C)C)NC(=O)[C@H](Cc2ccccc2)N(C)C(=O)[C@H](C(C)C)NC(=O)[C@H](CC(C)C)N(C)C(=O)[C@H]([C@@H](C)CC)NC(=O)[C@H](CC(C)C)N(C)C(=O)CN(C)C(=O)C[C@@H](C(=O)N2CCCCC2)N(C)C(=O)CNC(=O)[C@H](C)N(C)C1=O [pd080] ([Sar][NMeL]I[NMeL]V[NMeF]L[NMeF][NMeA][NMeV][Abu][NMeA]G[NMeD]-Piperidide; lactam N-14) | 0.25 10^-6 cm/sec | 2.5 | 29.3 | 27.8 | – | – | –
3 | CC[C@H](C)[C@@H]1NC(=O)[C@H](CC(C)C)N(C)C(=O)[C@H](CC(C)C)NC(=O)CCN(C)C(=O)C[C@@H](C)N(C)C(=O)CN(C)C(=O)[C@H](CC(C)C)N(C)C(=O)[C@@H]2CCCN2C(=O)[C@H](CC(C)C)N(C)C(=O)[C@H](COC(C)(C)C)NC(=O)[C@H]([C@@H](C)CC)N(C)C(=O)[C@H](CCc2ccccc2)NC(=O)[C@H](Cc2ccccc2)N(C)C1=O [pd142] (cyclo(I[NMeF][hPhe][NMeI]S(tBu)[NMeL]P[NMeL][Sar][NMedβ3hAla][NMeβAla]L[NMeL])) | 0.71 10^-6 cm/sec | 7.1 | 31.7 | 33.9 | – | – | –
4 | CC[C@H](C)[C@H]1C(=O)N(C)[C@@H](CC(C)C)C(=O)N[C@@H](CCc2ccccc2)C(=O)N(C)[C@@H](CC(C)C)C(=O)N(C)CCC(=O)N(C)[C@@H](C(C)C)C(=O)N[C@@H](CC(C)C)C(=O)N(C)[C@@H](CC(C)C)C(=O)N[C@@H]([C@@H](C)O)C(=O)N(C)CCC(=O)N(C)[C@@H](Cc2ccccc2)C(=O)N[C@@H](C(C)C)C(=O)N(C)[C@H](C(=O)N2CCCCC2)CC(=O)N(C)CC(=O)N1C [pd096] ([Sar][NMeI][NMeL][hPhe][NMeL][NMeβAla][NMeV]L[NMeL]T[NMeβAla][NMeF]V[NMeD]-Piperidide; lactam N-14) | – | – | – | – | 0.51 10^-6 cm/sec | 5.1 | 18.2
5 | CC[C@H](C)[C@H]1C(=O)N[C@@H]([C@@H](C)O)C(=O)N(C)CC(=O)N(C)[C@@H](CC(C)C)C(=O)N(C)[C@@H](Cc2ccccc2)C(=O)N[C@H](C(=O)N2CCCCC2)CC(=O)N(C)[C@@H](C)C(=O)N[C@@H](CC(C)C)C(=O)N(C)[C@@H](Cc2ccccc2)C(=O)N(C)CCC(=O)N(C)[C@@H](CC(C)C)C(=O)N[C@@H](CC(C)C)C(=O)N(C)[C@@H](C)C(=O)N(C)[C@@H](CC)C(=O)N1C [pd003] ([NMeA]L[NMeF][NMeβAla][NMeL]L[NMeA][NMeAbu][NMeI]T[Sar][NMeL][NMeF]D-Piperidide; lactam N-14) | 0.27 10^-6 cm/sec | 2.7 | 17.9 | 19.0 | – | – | –
6 | CC[C@H](C)[C@@H]1NC(=O)[C@H](CC(C)C)N(C)C(=O)CN(C)C(=O)C[C@@H](C(=O)N2CCCCC2)N(C)C(=O)CNC(=O)[C@H](C)N(C)C(=O)[C@H](CC)N(C)C(=O)[C@H](C(C)C)N(C)C(=O)[C@H](C)N(C)C(=O)[C@H](Cc2ccccc2)N(C)C(=O)[C@H](CC(C)C)NC(=O)[C@H](Cc2ccccc2)N(C)C(=O)[C@H](C(C)C)NC(=O)[C@H](CC(C)C)N(C)C1=O [pd085] ([Sar][NMeL]I[NMeL]V[NMeF]L[NMeF][NMeA][NMeV][NMeAbu][NMeA]G[NMeD]-Piperidide; lactam N-14) | 0.17 10^-6 cm/sec | 1.7 | 26.9 | 28.9 | – | – | –
7 | CC[C@H](C)[C@@H]1NC(=O)[C@H](C)N(C)C(=O)C[C@@H](C(=O)N2CCCCC2)NC(=O)[C@H](CC)N(C)C(=O)[C@H](COC(C)(C)C)NC(=O)[C@H](CC(C)C)N(C)C(=O)[C@H](C)N(C)C(=O)[C@H](CC(C)C)N(C)C(=O)[C@H](Cc2ccccc2)N(C)C(=O)CN(C)C(=O)[C@H]([C@@H](C)O)NC(=O)[C@H](CC(C)C)N(C)C(=O)[C@H](C(C)C)N(C)C(=O)[C@H](Cc2ccccc2)N(C)C1=O [pd004] ([NMeA]I[NMeF][NMeV][NMeL]T[Sar][NMeF][NMeL][NMeA][NMeL]S(tBu)[NMeAbu]D-Piperidide; lactam N-14) | 0.82 10^-6 cm/sec | 8.2 | 36.2 | 27.4 | – | – | –
8 | CC[C@H](C)[C@H]1C(=O)N[C@@H](Cc2ccccc2)C(=O)N2CCC[C@H]2C(=O)N(C)[C@@H](CC(C)C)C(=O)N[C@@H](COC(C)(C)C)C(=O)N(C)[C@@H](Cc2ccccc2)C(=O)N[C@@H]([C@@H](C)O)C(=O)N(C)[C@@H](CC)C(=O)N2CCC[C@H]2C(=O)N(C)[C@@H](CC(C)C)C(=O)N(C)[C@@H](C(C)C)C(=O)N[C@H](C(=O)N2CCCCC2)CC(=O)N(C)CCCC(=O)N(C)[C@@H](CC(C)C)C(=O)N1C [pd001] ([NMeGABA][NMeL][NMeI]FP[NMeL]S(tBu)[NMeF]T[NMeAbu]P[NMeL][NMeV]D-Piperidide; lactam N-14) | 0.94 10^-6 cm/sec | 9.4 | 34.2 | 29.6 | – | – | –
9 | CC[C@H](C)[C@@H]1NC(=O)[C@H](C)N(C)C(=O)C[C@@H](C(=O)N2CCCCC2)NC(=O)[C@H](CC)N(C)C(=O)[C@H](COC(C)(C)C)NC(=O)[C@H](CC(C)C)N(C)C(=O)[C@H](C)N(C)C(=O)[C@H](CC(C)C)N(C)C(=O)[C@H](Cc2ccccc2)N(C)C(=O)CN(C)C(=O)[C@H]([C@@H](C)O)NC(=O)[C@H](CC(C)C)N(C)C(=O)[C@H](Cc2ccccc2)N(C)C1=O [pd121] ([NMeA]I[NMeF][NMeL]T[Sar][NMeF][NMeL][NMeA][NMeL]S(tBu)[NMeAbu]D-Piperidide; lactam N-13) | 1.02 10^-6 cm/sec | 10.2 | 21.9 | 18.2 | – | – | –
10 | CC[C@H](C)[C@H]1C(=O)N[C@@H](CC(C)C)C(=O)N(C)[C@@H](CC(C)C)C(=O)N2CCC[C@H]2C(=O)N(C)[C@@H](C(C)C)C(=O)N[C@H](C(=O)N2CCCCC2)CC(=O)N(C)[C@@H](C)C(=O)N(C)[C@@H](CC(C)C)C(=O)N[C@@H](COC(C)(C)C)C(=O)N(C)[C@@H](Cc2ccccc2)C(=O)N(C)[C@@H](CC)C(=O)N(C)[C@@H](Cc2ccccc2)C(=O)N[C@@H]([C@@H](C)O)C(=O)N1C [pd119] ([NMeA][NMeL]S(tBu)[NMeF][NMeAbu][NMeF]T[NMeI]L[NMeL]P[NMeV]D-Piperidide; lactam N-13) | 0.50 10^-6 cm/sec | 5 | 41.2 | 34.2 | – | – | –
11 | CC[C@H](C)[C@@H]1NC(=O)CN(C)C(=O)C[C@@H](C(=O)N2CCCCC2)N(C)C(=O)[C@H](Cc2ccccc2)N(C)C(=O)[C@H](CC(C)C)N(C)C(=O)[C@H]([C@@H](C)O)NC(=O)[C@H](CC(C)C)N(C)C(=O)[C@H](CC(C)C)NC(=O)[C@H](C(C)C)N(C)C(=O)[C@H](C)N(C)C(=O)[C@H](CC(C)C)N(C)C(=O)[C@H](CCc2ccccc2)NC(=O)[C@H](CC(C)C)N(C)C1=O [pd165] ([Sar]I[NMeL][hPhe][NMeL][NMeA][NMeV]L[NMeL]T[NMeL][NMeF][NMeD]-Piperidide; lactam N-13) | 0.10 10^-6 cm/sec | 1 | 40.9 | 27.2 | – | – | –
12 | CC[C@@H]1NC(=O)[C@H](CC(C)C)N(C)C(=O)[C@H](COC(C)(C)C)NC(=O)[C@H]([C@@H](C)CC)NC(=O)[C@H](Cc2ccccc2)N(C)C(=O)CNC(=O)[C@H]([C@@H](C)CC)NC(=O)[C@H](CC(C)C)N(C)C(=O)CCCN(C)C(=O)C[C@@H](C)N(C)C(=O)[C@H](CC(C)C)NC(=O)[C@H](C)N(C)C(=O)[C@H](Cc2ccccc2)N(C)C(=O)[C@H](C(C)C)NC1=O [pd063] (cyclo([Abu]V[NMeF][NMeA]L[NMedβ3hAla][NMeGABA][NMeL]IG[NMeF]IS(tBu)[NMeL])) | 0.03 10^-6 cm/sec | 0.3 | 47.5 | 33.7 | – | – | –
13 | CC[C@@H]1NC(=O)[C@H](C(C)C)N(C)C(=O)[C@H](CC(C)C)NC(=O)[C@H](CC(C)C)N(C)C(=O)[C@H]([C@@H](C)O)NC(=O)CN(C)C(=O)[C@H]([C@@H](C)CC)NC(=O)[C@H](Cc2ccccc2)N(C)C(=O)[C@H](CC(C)C)N(C)C(=O)C[C@@H](C(=O)N2CCCCC2)NC(=O)[C@H](Cc2ccccc2)N(C)C(=O)[C@H](COC(C)(C)C)NC(=O)[C@@H]2CCCN2C1=O [pd106] ([NMeL][NMeF]I[Sar]T[NMeL]L[NMeV][Abu]PS(tBu)[NMeF]D-Piperidide; lactam N-13) | 0.24 10^-6 cm/sec | 2.4 | 32.7 | 37.4 | – | – | –
